Patent US20250320203A1, “4-(3H-PYRAZOLO[4,3-F]QUINOLIN-7-YL)-N-(2-(DIMETHYLAMINO)ETHYL)BENZAMIDE- OR HYDROXAMIC ACID COMPOUNDS, COMPOSITIONS, AND METHODS OF USE” (Purdue Research Foundation, priority 2022, published 2025)

Tests used:
FLT3-D835Y = target: T1, FLT3-D835Y (Homo sapiens, UniProt P36888, D835Y); test: FLT3 (D835Y) enzyme inhibition, 10-dose IC50 (Reaction Biology); type: biochemical; details: 10 μM ATP
T1 construct: purchased Reaction Biology (contract research service)
T1 sequence (P36888 27-993 D835Y): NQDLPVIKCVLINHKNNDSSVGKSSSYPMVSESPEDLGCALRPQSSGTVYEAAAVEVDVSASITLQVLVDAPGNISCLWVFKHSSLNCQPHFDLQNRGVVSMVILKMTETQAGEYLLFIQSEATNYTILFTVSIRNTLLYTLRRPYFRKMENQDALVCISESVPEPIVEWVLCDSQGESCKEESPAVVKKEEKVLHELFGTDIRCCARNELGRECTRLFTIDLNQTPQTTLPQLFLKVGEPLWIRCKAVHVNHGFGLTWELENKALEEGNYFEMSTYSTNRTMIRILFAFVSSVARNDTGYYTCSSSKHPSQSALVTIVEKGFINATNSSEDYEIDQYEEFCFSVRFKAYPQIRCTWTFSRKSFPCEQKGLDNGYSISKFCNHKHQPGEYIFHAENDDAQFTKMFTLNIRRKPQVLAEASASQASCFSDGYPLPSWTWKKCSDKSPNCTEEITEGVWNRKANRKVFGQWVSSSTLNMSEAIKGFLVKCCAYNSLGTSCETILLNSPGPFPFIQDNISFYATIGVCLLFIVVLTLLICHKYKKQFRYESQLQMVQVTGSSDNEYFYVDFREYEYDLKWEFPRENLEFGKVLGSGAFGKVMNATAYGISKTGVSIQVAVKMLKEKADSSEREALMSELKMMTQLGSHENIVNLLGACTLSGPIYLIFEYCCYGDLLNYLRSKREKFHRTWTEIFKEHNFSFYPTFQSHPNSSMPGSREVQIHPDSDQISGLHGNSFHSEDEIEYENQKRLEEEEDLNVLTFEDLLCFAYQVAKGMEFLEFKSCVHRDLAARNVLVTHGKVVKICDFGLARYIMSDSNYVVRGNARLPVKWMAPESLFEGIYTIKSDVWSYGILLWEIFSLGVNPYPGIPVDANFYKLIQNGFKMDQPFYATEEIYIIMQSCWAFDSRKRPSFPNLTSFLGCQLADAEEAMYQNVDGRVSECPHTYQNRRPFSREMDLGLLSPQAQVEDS

[1] = test system: histone H3 (Thr3) phosphorylation by haspin; test: Western blot, histone H3 (Thr3) phosphorylation by haspin in Molm-14 cells; type: cell-based, human; details: 24 hours, HSK205 5, 20 or 100 nM, gilteritinib 100 nM
Description: Whether Compound HSK205 does indeed inhibit haspin in AML cells was then evaluated, and immunoblotting was performed to confirm inhibition of histone H3 (Thr3)phosphorylation by haspin (FIG. 13A). […] The samples were subsequently analyzed for the phosphorylation of histone H3 (Thr3).
Acute myeloid leukemia cells (Molm-14) were incubated with various concentrations of compound as specified. Cells were collected and lysed, and protein concentrations were quantified relative to BSA standards. After protein denaturation, proteins were separated via SDS-PAGE electrophoresis and transferred to NC membranes. After blocking, overnight incubation with specific primary antibodies, and room temperature incubation for 2 hours with peroxidase-conjugated secondary antibodies, peroxidase activity was detected with SuperSignal West Pico reagents (Thermo Scientific) using a CCD camera LAS-4000 (Fujifilm). Bands were normalized using housekeeping gene, Actin. Values reported represent the means of triplicates and error bars represent SD. All specific antibodies were purchased from Cell Signaling.

Molm-14-ITD-F691L = test: Cell viability GI50, Molm-14-ITD-F691L; type: cell-based; details: Homo sapiens; 72 hours
Description: More specifically, cells were cultured to confluence in RPMI medium supplemented with 10% fetal bovine serum and 1× Penicillin-Streptomycin (Gibco™). Cells were plated at 5,000 cells/well in 96 well plates. After 24-hour incubation at 37° C. in a 5% CO2 incubator, compounds diluted in the same media were added to the indicated final concentration and allowed to incubate at 37° C. in a 5% CO2 incubator for 72 hours. Viability was determined using CellTiter-Blue® Cell Viability Assay (Promega, Madison, WI) with absorbance readings at 570 nm performed on a Cytation™ 5 Cell Imaging Multi-Mode Reader (BioTek) 3 hours after addition. Appropriate vehicle and cell-free controls were included. GI50 readings were confirmed by two scientists on two separate days.
Scholl et al. (2020), supra. Accordingly, Compound HSK205 was evaluated against Molm-14 cell lines that harbor resistant mutations commonly found in the clinic, FLT3-ITD-D835Y and F691L (FIG. 15).

haspin = target: T2, haspin (Homo sapiens, UniProt Q8TF76); test: Haspin binding Kd (Eurofins); set-up: purchased Eurofins (contract research service)
T2 sequence (Q8TF76 1-798): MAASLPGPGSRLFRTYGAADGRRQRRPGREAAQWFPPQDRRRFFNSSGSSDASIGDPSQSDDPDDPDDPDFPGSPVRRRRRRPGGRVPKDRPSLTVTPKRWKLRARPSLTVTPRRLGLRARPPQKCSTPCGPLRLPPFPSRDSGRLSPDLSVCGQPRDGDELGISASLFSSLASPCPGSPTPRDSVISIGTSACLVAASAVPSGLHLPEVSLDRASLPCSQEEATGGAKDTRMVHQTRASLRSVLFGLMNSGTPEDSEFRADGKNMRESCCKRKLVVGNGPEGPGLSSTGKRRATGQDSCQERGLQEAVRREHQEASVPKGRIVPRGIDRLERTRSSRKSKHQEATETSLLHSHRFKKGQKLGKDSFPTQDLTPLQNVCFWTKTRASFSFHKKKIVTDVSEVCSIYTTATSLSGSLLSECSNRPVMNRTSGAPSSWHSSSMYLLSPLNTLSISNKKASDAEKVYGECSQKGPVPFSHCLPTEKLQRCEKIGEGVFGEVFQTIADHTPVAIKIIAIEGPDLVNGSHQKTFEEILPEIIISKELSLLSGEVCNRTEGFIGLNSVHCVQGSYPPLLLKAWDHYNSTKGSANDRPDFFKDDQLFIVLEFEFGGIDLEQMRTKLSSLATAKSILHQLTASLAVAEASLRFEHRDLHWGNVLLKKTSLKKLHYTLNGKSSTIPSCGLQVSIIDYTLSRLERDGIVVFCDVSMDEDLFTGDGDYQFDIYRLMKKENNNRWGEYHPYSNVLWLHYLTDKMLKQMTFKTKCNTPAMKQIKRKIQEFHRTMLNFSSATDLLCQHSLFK

IC50 (FLT3-D835Y): < 0.5 nM
GI50 (Molm-14-ITD-F691L): 2.2 nM
Kd (haspin): 0.55 nM
Compound: Cc1c[nH]c(CNC(=O)c2ccc(-c3nc4ccc5[nH]ncc5c4c4c3CCCC4)cc2)n1 [Compound HSK205]
phosphorylation of histone H3 (Thr3) [1]: effective in reducing phosphyorlation of histone H3 (Thr3)
